Article PMC9818267, “Brain Natriuretic Peptide Protects Cardiomyocytes from Apoptosis and Stimulates Their Cell Cycle Re-Entry in Mouse Infarcted Hearts” (Cells, 2022)
Like-named read-outs stand apart in the source and are kept apart here. No end group written: not given here.

Legend:
phospholamban (PLB) = test: Western blot pPLB/PLB in CMs isolated from BNP-injected hearts; assay type: in vivo, mouse; conditions: vs saline
Experimental: BNP was injected into infarcted adults, and unmanipulated neonatal and adult mice. Directly after surgery, NaCl (saline) or BNP (1.3 µg/20 g in 20 µL) was injected into the left ventricle cavity. At 24 h after MI, mice were intraperitoneal (ip) injected with BNP (2 µg/20 g mice) or saline every 2 days. C57BL/6 mice were sacrificed 1- and 14 days post-MI and Myh6 MerCreMer mice were sacrificed 14 days post-MI (Figure 1A). Neonatal C57BL/6 mice (3 days after birth) were injected ip with NaCl or BNP every two days (1 µg/2 g; Bachem; synthetic mouse BNP (1–45) peptide (catalog number H-7558)). Mice were sacrificed 11 days after birth (Figure 1B). Eight week old C57 BL/6 mice or Myh6 MerCreMer unmanipulated mice were injected ip with BNP (2 µg/20 g mice) or NaCl every two days (Figure 1C). Two weeks after the first injection, mice were sacrificed. To assess for the implication of the ERK signaling pathway in the BNP effect on CMs, PD0325901 (60 µg/20 g mice in 80 µL) was administered by gavage in adult unmanipulated mice 1 h before BNP injection (2 µg/20 g mice).
CM isolations were performed thanks to the Langendorff-Free method. […] Thereafter, the heart was removed from the chest and the left ventricle was perfused with enzymatic solution containing collagenase II (120 U/mL), collagenase IV (120 U/mL) (Worthington, Biochemical Corporation, USA) and protease XIV (0.05 mg/mL or 0.175 U/mL) (Sigma-Aldrich, Merck, Darmstadt, Germany). In each experiment, a full digestion of the heart was obtained. After digestion, cardiac cells were dissociated by gentle pipetting, filtered and collected after 25 min sedimentation. For infarcted hearts, the tissue was separated into the three zones (ZI, BZ and RZ). The three different areas were weighted before gentle pipetting.
(§1) Total proteins were extracted from CMs isolated from adult infarcted and unmanipulated neonatal and adult hearts. Proteins were transferred to nitrocellulose membranes (Biorad) before incubation with primary antibodies overnight at 4 °C. Secondary antibodies were added 1 h at RT in the dark (Supplementary File S1). The signal was detected and quantified with the Odyssey infrared imaging system (LI-COR. Biosciences, Bad Homburg, Germany). All results were normalized to the tubulin protein level or to the total protein level thanks to stainings with the Revert 700 Total protein Stain (LI-COR).

Troponin I+ GFP+ cells = test: Flow cytometry count of Troponin I+ GFP+ cells in Myh6 MerCreMer hearts; assay type: in vivo, mouse; conditions: unmanipulated adult Myh6 MerCreMer mice, tamoxifen then BNP, two weeks after first BNP injection, vs saline
Experimental: Before surgery and/or BNP treatments, adult Myh6 MerCreMer mice (6-week-old) were injected with Tamoxifen (Sigma, Merck, Darmstadt, Germany, T5648) at 40 mg/kg to activate the Cre recombinase. Tamoxifen was dissolved in ethanol to a concentration of 100 mg/mL and emulsified in peanut oil to a final concentration of 10 mg/mL. A total of 1 mg Tamoxifen/25 g body weight was injected intraperitoneally (i.p) to adult mice one time. Two weeks after tamoxifen injection, 90–95% of pre-existing CMs expressed the GFP protein [11].
BNP was injected into infarcted adults, and unmanipulated neonatal and adult mice. Directly after surgery, NaCl (saline) or BNP (1.3 µg/20 g in 20 µL) was injected into the left ventricle cavity. At 24 h after MI, mice were intraperitoneal (ip) injected with BNP (2 µg/20 g mice) or saline every 2 days. C57BL/6 mice were sacrificed 1- and 14 days post-MI and Myh6 MerCreMer mice were sacrificed 14 days post-MI (Figure 1A). […]
Adult CMs were isolated using enzymatic digestion (see above). […] Cells were analyzed with CytoFLEX (Beckmann Coulter) cytometer and data generated using FlowJo 10 software (10.7.1 version, Becton Dickinson and Compagny, Franklin Lakes, NJ, USA). […] Cells were stained with DAPI and only the DAPI negative cells (living cells) were analyzed.

cleaved caspase-3 = test: Western blot cleaved caspase-3 in infarct zone; assay type: in vivo, mouse; conditions: ZI one day after MI, BNP vs saline
Description: At sacrifice, mice were weighted, the heart excised and weighted. The apex was embedded into OCT and slowly frozen for immunohistochemistry analysis. For quantitative RT-PCR (qRT-PCR) and/or Western blot analysis, the rest of the heart was quickly frozen in N2. Hearts from infarcted animals were separated into 3 zones for molecular and cellular analysis including CM isolation: (1) the infarction zone (ZI), (2) the border zone (BZ) and (3) the remote zone (RZ). The different areas were processed under microscopy: the ZI area is easily detectable by the color and the presence of the suture, the BZ corresponds to 0.5 mm tissue around the ZI and the rest of the heart is the RZ.
as §1

Nkx2.5+ myocytes = conditions: cited from earlier work
[1] = cited from earlier work
Description: In previous work, we highlighted the cardioprotective effect of BNP intraperitoneal (ip) injections in infarcted mice. Contractility increased twofold and heart remodeling (the percentage of changes of the left ventricle volume) decreased (−79%, p = 0.04) 4 weeks after MI in BNP-treated mice when compared to saline-injected mice. At the cellular level, BNP injections decreased the infarct size by 20% and reduced fibrosis. At least a part of the BNP positive effect in infarcted mice is due to increased cardiac angiogenesis and vasculogenesis. Indeed, BNP stimula ... || The concentrations of BNP used in this study were already shown to stimulate the mobilization, proliferation and differentiation of the endothelial precursor cells. In our first work, we verified that these concentrations have no impact on blood pressure, heart rate and cardiac output. In contrast, these BNP concentrations decrease the heart remodeling, the left ventricular volume and left ventricular end diastolic diameter and increase by 2-fold the contractility, 4 weeks after MI [11]. Furthermore, at the cellular level, these BNP concentrations increase the number of ca ...

[2] = cited from earlier work; remark: listed apart in the source
[3] = rats with myocardial damage; cited from earlier work

## Brain Natriuretic Peptide (SQGSTLRVQQRPQNSKVTHISSCFGHKIDRIGSVSRLGCNALKLL; not fully specified; ends and bridges not checked; UniProt P40753 77-121, looked up) [BNP, synthetic mouse BNP (1–45) peptide (Bachem, catalog number H-7558)]
Phospholamban (PLB); CMs from remote zone (RZ) of infarcted hearts after BNP injections
  pPLB/PLB ratio change: −32%
Phospholamban (PLB); CMs from unmanipulated adult hearts after BNP injections (2–3 h before CM isolation)
  pPLB/PLB ratio increase: 1.5 ×
Phospholamban (PLB); CMs from unmanipulated neonatal hearts after BNP injections
  pPLB/PLB ratio increase: 3.5 ×
Phospholamban (PLB); CMs isolated from border zone (BZ) of infarcted hearts after BNP injections
  pPLB/PLB ratio increase: 2.7 ×
Troponin I+ GFP+ cells
  increase of number of Troponin I+ GFP+ cells: 28%
Cleaved caspase-3
  caspase 3 protein level change: −42%
Nkx2.5+ myocytes; adult BNP-treated hearts
  increase in Nkx2.5+ myocytes: 68%
Nkx2.5+ myocytes; neonatal BNP-treated hearts
  increase in Nkx2.5+ myocytes: 22.5%
[1]; 4 weeks after MI, BNP vs saline, p = 0.04
  heart remodeling (percentage of changes of the left ventricle volume) change: −79%
[1]; 4 weeks after MI, BNP vs saline
  contractility increase: twofold
[1]; BNP concentrations used in this study
  impact on blood pressure, heart rate and cardiac output: no impact
[1]; BNP injections in infarcted mice
  decrease of infarct size: 20%
[2]; healthy persons
  half-life in the circulation: about 18 min
[2]; patients with congestive heart failure
  half-life in the plasma: ~12 min
[3]
  half-life: about 1.2 min
